US12187742B2 (XRAD Therapeutics, Inc., priority 2018, dated 2025)
Where a name gives a salt, the structure may show the parent alone.

Legend:
ATM = ATM (Homo sapiens (Human), UniProt Q13315); assay: ATM in Cell Western Assay (pKAP1 in etoposide-treated MCF-7 cells); assay type: cell-based
Summary of the method: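 Cells received compounds in a 10-dose, 3-fold series from a 1 μM final top concentration, then 100 μM etoposide, for 1 hr at 37° C. They were then fixed with paraformaldehyde and permeabilized with 0.1% Triton X-100. After immunostaining, plates were scanned on an infrared imager.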

DNA-PK = DNA-PK (Homo sapiens (Human), UniProt P78527); assay: DNA-PK Enzyme-Linked Immunosorbent Assay (phosphorylation of GST-p53 (1-101) peptide); assay type: biochemical; conditions: ELISA
Summary of the method: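 ELISA with plate-bound GST-p53 (1-101) phosphorylated by DNA-PK (0.1 μg/mL final) with 20 μM ATP for 1 h at 25 °C. Compounds tested over 10 3-fold doses from 100 nM top final. Phospho-p53 Ser15 detected by antibody, HRP and TMB, absorbance at 450 nm.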

[1] = MCF-7 cells, etoposide 100 μM, 1 hr, pKAP1 readout
[2] = pKAP1 in etoposide-treated MCF-7 cells

Sequence of ATM (Q13315 whole entry): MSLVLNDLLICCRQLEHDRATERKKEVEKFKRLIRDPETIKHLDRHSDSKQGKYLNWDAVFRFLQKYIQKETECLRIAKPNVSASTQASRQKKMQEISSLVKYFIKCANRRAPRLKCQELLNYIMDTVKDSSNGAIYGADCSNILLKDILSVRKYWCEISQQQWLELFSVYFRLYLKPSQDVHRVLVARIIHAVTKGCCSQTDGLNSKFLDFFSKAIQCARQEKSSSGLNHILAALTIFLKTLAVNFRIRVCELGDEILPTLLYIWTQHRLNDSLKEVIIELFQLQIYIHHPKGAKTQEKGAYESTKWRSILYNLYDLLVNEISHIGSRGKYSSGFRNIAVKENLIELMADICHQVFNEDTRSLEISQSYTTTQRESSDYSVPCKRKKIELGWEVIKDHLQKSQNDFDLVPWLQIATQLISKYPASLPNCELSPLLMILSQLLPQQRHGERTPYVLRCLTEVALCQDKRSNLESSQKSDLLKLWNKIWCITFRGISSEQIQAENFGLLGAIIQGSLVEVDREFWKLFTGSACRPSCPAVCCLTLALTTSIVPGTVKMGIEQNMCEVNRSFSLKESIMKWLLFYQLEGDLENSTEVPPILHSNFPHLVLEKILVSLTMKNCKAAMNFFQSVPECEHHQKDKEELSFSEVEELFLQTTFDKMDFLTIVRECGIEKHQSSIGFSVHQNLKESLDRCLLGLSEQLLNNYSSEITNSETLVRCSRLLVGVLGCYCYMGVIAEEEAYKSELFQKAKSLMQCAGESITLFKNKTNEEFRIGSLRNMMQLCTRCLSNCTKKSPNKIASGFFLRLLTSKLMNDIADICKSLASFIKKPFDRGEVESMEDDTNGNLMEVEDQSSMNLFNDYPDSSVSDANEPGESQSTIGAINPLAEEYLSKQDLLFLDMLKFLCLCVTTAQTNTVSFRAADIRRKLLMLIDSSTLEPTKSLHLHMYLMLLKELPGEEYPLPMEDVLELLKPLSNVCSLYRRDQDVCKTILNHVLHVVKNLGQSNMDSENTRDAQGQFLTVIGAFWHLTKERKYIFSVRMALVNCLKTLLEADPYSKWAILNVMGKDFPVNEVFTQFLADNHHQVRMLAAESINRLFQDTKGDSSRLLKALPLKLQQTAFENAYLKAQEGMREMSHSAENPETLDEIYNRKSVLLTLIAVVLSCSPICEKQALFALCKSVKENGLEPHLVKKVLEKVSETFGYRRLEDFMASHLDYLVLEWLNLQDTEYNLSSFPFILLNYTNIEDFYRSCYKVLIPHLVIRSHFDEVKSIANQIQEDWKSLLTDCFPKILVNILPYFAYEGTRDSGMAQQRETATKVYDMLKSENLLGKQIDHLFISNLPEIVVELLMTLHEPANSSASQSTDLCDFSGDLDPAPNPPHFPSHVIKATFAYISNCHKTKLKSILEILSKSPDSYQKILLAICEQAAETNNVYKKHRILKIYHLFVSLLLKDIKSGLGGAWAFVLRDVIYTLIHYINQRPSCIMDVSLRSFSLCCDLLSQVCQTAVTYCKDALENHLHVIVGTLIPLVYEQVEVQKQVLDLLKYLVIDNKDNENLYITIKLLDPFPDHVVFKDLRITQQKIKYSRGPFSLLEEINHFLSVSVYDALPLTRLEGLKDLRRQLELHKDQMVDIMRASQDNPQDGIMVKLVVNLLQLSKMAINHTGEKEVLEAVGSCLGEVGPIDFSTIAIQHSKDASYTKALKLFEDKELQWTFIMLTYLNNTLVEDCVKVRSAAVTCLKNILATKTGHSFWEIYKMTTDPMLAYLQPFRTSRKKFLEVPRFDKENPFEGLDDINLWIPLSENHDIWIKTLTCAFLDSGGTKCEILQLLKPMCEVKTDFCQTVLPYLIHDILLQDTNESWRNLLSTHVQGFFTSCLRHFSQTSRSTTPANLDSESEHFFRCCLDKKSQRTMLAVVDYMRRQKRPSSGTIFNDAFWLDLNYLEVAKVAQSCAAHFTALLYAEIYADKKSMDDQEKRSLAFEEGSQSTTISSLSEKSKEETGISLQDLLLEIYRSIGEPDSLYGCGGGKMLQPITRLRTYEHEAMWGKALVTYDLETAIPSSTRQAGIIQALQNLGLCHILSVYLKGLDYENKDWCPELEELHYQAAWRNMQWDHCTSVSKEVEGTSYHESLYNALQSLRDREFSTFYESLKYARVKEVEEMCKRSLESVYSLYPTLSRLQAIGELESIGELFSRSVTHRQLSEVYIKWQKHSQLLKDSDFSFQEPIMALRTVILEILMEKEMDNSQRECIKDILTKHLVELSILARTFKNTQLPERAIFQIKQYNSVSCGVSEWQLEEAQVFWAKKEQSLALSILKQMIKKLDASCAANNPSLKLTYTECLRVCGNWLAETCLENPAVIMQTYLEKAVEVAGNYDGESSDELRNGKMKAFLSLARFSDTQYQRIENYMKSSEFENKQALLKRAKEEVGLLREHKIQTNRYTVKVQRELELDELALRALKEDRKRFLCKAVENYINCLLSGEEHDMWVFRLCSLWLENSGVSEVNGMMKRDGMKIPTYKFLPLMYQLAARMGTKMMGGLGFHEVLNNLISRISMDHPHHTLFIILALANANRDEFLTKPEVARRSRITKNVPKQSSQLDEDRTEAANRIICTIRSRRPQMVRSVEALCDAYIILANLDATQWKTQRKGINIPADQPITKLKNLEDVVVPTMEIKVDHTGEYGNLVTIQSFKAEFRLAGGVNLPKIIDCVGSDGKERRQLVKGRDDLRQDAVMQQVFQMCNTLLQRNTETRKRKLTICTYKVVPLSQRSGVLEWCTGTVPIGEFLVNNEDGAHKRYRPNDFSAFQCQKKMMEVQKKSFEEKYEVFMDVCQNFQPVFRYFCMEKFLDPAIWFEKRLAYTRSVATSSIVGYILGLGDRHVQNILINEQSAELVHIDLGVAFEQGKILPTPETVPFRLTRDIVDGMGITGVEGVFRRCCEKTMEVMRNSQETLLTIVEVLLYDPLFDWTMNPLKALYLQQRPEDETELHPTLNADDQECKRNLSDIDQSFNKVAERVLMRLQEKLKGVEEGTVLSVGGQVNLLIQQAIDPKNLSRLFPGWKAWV

Row | Compound | IC50 (ATM; [1]) | IC50 (DNA-PK; ATP 20 μM) | IC50 (ATM; [2]) | IC50 (DNA-PK; 20 μM ATP)
1 | CN1C(=O)C2(CC2)c2c1cnc1ccc(-c3cnc4ncccc4c3)cc21 [Example 62, 3′-Methyl-8′-(1,8-naphthyridin-3-yl)spiro[cyclopropane-1,1′-pyrrolo[2,3-c]quinolin]-2′(3′-H)-one] | 1 to 100 nM | 1 to 100 nM | – | –
2 | CO[C@H]1C[C@]2(C1)C(=O)N(C)c1cnc3cc(F)c(-c4cnc(OCCNC(C)C)c(NS(C)(=O)=O)c4)cc3c12 [Example 385, cis-N-(5-(7′-Fluoro-3-methoxy-3′-methyl-2′-oxo-2′,3′-dihydrospiro[cyclobutane-1,1′-pyrrolo[2,3-c]quinolin]-8′-yl)-2-(2-(isopropylamino)ethoxy)pyridin-3-yl)methanesulfonamide] | – | – | 1 to 100 nM | < 0.5 nM
3 | CO[C@H]1C[C@@]2(C1)C(=O)N(C)c1cnc3ccc(-c4cnc(OCCNC(C)C)c(NS(C)(=O)=O)c4)cc3c12 [Example 384, trans-N-(2-(2-(Isopropylamino)ethoxy)-5-(3-methoxy-3′-methyl-2′-oxo-2,3′-dihydrospiro[cyclobutane-1,1′-pyrrolo[2,3-c]quinolin]-8′-yl)pyridin-3-yl)methanesulfonamide hydrochloride] | – | – | 1 to 100 nM | < 0.5 nM
4 | CC(C)NCCOc1ncc(-c2cc3c(cc2F)ncc2c3[C@]3(C[C@H](c4ccncc4)C3)C(=O)N2C)cc1NS(C)(=O)=O [Example 438] | – | – | 1 to 100 nM | 1 to 100 nM
5 | CC(C)NCCOc1ncc(-c2cc3c(cc2F)ncc2c3[C@]3(C[C@@H](c4cccc(F)c4)C3)C(=O)N2C)cc1NS(C)(=O)=O [Example 425, trans-N-(5-(7′-Fluoro-3-(3-fluorophenyl)-3′-methyl-2′-oxo-2′,3′-dihydrospiro[cyclobutane-1,1′-pyrrolo[2,3-c]quinolin]-8′-yl)-2-(2-(isopropylamino)ethoxy)pyridin-3-yl)methanesulfonamide] | – | – | > 100 nM | 1 to 100 nM
6 | CC(C)NCCOc1ncc(-c2cc3c(cc2F)ncc2c3[C@]3(C[C@@H](c4ccc(Cl)cc4)C3)C(=O)N2C)cc1NS(C)(=O)=O [Example 417, trans-N-(5-(3-(4-Chlorophenyl)-7′ fluoro-3′-methyl-2′-oxo-2′,3′-dihydrospiro[cyclobutane-1,1′-pyrrolo[2,3-c]quinolin]-8′-yl)-2-(2-(isopropylamino)ethoxy)pyridin-3-yl)methanesulfonamide] | – | – | > 100 nM | 1 to 100 nM
7 | COc1ccc(S(=O)(=O)Nc2cc(-c3ccc4ncc5c(c4c3)C3(CC3)C(=O)N5C)cnc2OCCCN(C)C)cc1 [Example 93, N-(2-(3-(Dimethylamino)propoxy)-5-(3′-methyl-2′-oxo-2′,3′-dihydrospiro [cyclopropane-1,1′-pyrrolo[2,3-c]quinolin]-8′-yl)pyridin-3-yl)-4-methoxybenzenesulfonamide] | 1 to 100 nM | < 0.5 nM | – | –
8 | CC(C)NCCOc1ncc(-c2cc3c(cc2F)ncc2c3[C@]3(C[C@H](C(C)(C)O)C3)C(=O)N2C)cc1NS(C)(=O)=O [Example 456, cis-N-(5-(7′-Fluoro-3-(2-hydroxypropan-2-yl)-3′-methyl-2′-oxo-2′,3′-dihydrospiro[cyclobutane-1,1′-pyrrolo[2,3-c]quinolin]-8′-yl)-2-(2-(isopropylamino)ethoxy)pyridin-3-yl)methanesulfonamide] | – | – | 1 to 100 nM | 1 to 100 nM
9 | CCOC[C@H]1C[C@]2(C1)C(=O)N(C)c1cnc3cc(F)c(-c4cnc(OCCNC(C)C)c(NS(C)(=O)=O)c4)cc3c12 [Example 406, cis-N-(5-(3-(Ethoxymethyl)-7′-fluoro-3′-methyl-2′-oxo-2′,3′-dihydrospiro[cyclobutane-1,1′-pyrrolo[2,3-c]quinolin]-8′-yl)-2-(2-(isopropylamino)ethoxy)pyridin-3-yl)methanesulfonamide] | – | – | 1 to 100 nM | 0.5 to 1 nM
10 | COc1ncc(-c2ccc3ncc4c(c3c2)C2(CC2)C(=O)N4C)cc1NS(=O)(=O)c1ccc([N+](=O)[O-])cc1 [Example 12, N-(2-Methoxy-5-(3′-methyl-2′-oxo-2′,3′-dihydrospiro [cyclopropane-1,1′-pyrrolo[2,3-c]quinolin]-8′-yl)pyridin-3-yl)-4-nitrobenzenesulfonamide] | 1 to 100 nM | < 0.5 nM | – | –
11 | COc1ccc(N2CC3(C2)C(=O)N(C)c2cnc4cc(F)c(-c5cnc(OCCNC(C)C)c(NS(C)(=O)=O)c5)cc4c23)cc1 [Example 533, N-(5-(7′-Fluoro-1-(4-methoxyphenyl)-3 methyl-2′-oxo-2′,3′-dihydrospiro [azetidine-3,1′-pyrrolo[2,3-c]quinolin]-8′-yl)-2-(2-(isopropylamino)ethoxy)pyridin-3-yl)methanesulfonamide] | – | – | 1 to 100 nM | 1 to 100 nM
12 | CN(C)CCCOc1ncc(-c2ccc3ncc4c(c3c2F)C2(CCC2)C(=O)N4C)cc1NS(C)(=O)=O [Example 268, N-(2-(3-(Dimethylamino)propoxy)-5-(9′-fluoro-3′-methyl-2′-oxo-2′,3′-dihydrospiro[cyclobutane-1,1′-pyrrolo[2,3-c]quinolin]-8′-yl)pyridin-3-yl)methanesulfonamide] | 1 to 100 nM | 1 to 100 nM | – | –

Now from value to compound:

Row | IC50 (ATM; [1]) | IC50 (DNA-PK; ATP 20 μM) | IC50 (ATM; [2]) | IC50 (DNA-PK; 20 μM ATP) | Compound
13 | 1 to 100 nM | 0.5 to 1 nM | – | – | CN(C)CC(O)COc1ncc(-c2ccc3ncc4c(c3c2)C2(CCC2)C(=O)N4C)cc1NS(C)(=O)=O (stereo not shown) [Example 295, N-(2-(3-(Dimethylamino)-2-hydroxypropoxy)-5-(3′-methyl-2′-oxo-2′,3′-dihydrospiro[cyclobutane-1,1′-pyrrolo[2,3-c]quinolin]-8′-yl)pyridin-3-yl)methanesulfonamide]
14 | 1 to 100 nM | 1 to 100 nM | – | – | CN(C)CCCOc1ncc(-c2ccc3ncc4c(c3c2)C2(CCC2)C(=O)N4C)cc1NS(=O)(=O)C1CC1 [Example 190, N-(2-(3-(Dimethylamino)propoxy)-5-(3′-methyl-2′-oxo-2′,3′-dihydrospiro[cyclobulane-1,1′-pyrrolo[2,3-c]quinolin]-8′-yl)pyridin-3-yl)cyclopropanesulfonamide]
15 | 1 to 100 nM | < 0.5 nM | – | – | CN(C)CCCOc1ncc(-c2ccc3ncc4c(c3c2)C2(CC2)C(=O)N4C)cc1NS(C)(=O)=O [Example 64, N-(2-(3-(Dimethylamino)propoxy)-5-(3′-methyl-2′-oxo-2′,3′-dihydrospiro[cyclopropane-1,1′-pyrrolo[2,3-c]quinolin]-8′-yl)pyridin-3-yl) methanesulfonamide]
16 | 1 to 100 nM | 1 to 100 nM | – | – | CN(C)CCCOc1ncc(-c2ccc3ncc4c(c3c2)C2(CC2)C(=O)N4C)cc1NS(=O)(=O)C1CCC1 [Example 69, N-(2-(3-(Dimethylamino)propoxy)-5-(3′-methyl-2′-oxo-2′,3′-dihydrospiro[cyclopropane-1,1′-pyrrolo[2,3-c]quinolin]-8′-yl)pyridin-3-yl)cyclobutanesulfonamide]
17 | 0.5 to 1 nM | < 0.5 nM | – | – | CN(C)CCCOc1ncc(-c2ccc3ncc4c(c3c2)C2(CCC2)C(=O)N4C)cc1NS(=O)(=O)c1ccccc1F [Example 168, N-(2-(3-(Dimethylamino)propoxy)-5-(3′-methyl-2′-oxo-2′,3′-dihydrospiro[cyclobutane-1,1′-pyrrolo[2,3-c]quinolin]-8′-yl)pyridin-3-yl)-2-fluorobenzenesulfonamide hydrochloride]
18 | 1 to 100 nM | 1 to 100 nM | – | – | CN(C)CCCOc1ncc(-c2ccc3ncc4c(c3c2)C2(CCC2)C(=O)N4C)cc1NS(=O)(=O)c1cc(Cl)cc(Cl)c1 [Example 157, 3,5-Dichloro-N-(2-(3-(dimethylamino)propoxy)-5-(3′-methyl-2′-oxo-2′,3′-dihydrospiro [cyclobutane-1,1′-pyrrolo[2,3-c]quinolin]-8′-yl)pyridin-3-yl) benzenesulfonamide hydrochloride]
19 | 0.5 to 1 nM | < 0.5 nM | – | – | CN1CCN(c2ncc(-c3ccc4ncc5c(c4c3)C3(CCC3)C(=O)N5C)cc2NS(C)(=O)=O)CC1 [Example 229, N-(5-(3′-Methyl-2′-oxo-2′,3′-dihydrospiro[cyclobutane-1,1′-pyrrolo[2,3-c]quinolin]-8′-yl)-2-(4-methylpiperazin-1-yl)pyridin-3-yl)methanesulfonamide]
20 | < 0.5 nM | < 0.5 nM | – | – | CN1C(=O)C2(CCC2)c2c1cnc1ccc(-c3cnc(N4CCC(N(C)C)CC4)c(NS(=O)(=O)C4CC4)c3)cc21 [Example 173, N-(2-(4-(Dimethylamino)piperidin-1-yl)-5-(3′-methyl-2′-oxo-2′,3′-dihydrospiro[cyclobutane-1,1′-pyrrolo[2,3-c]quinolin]-8′-yl)pyridin-3-yl)cyclopropanesulfonamide]
21 | 1 to 100 nM | 0.5 to 1 nM | – | – | CCN(C)S(=O)(=O)Nc1cc(-c2ccc3ncc4c(c3c2)C2(CCC2)C(=O)N4C)cnc1OCCCN(C)C [Example 163, 8′-{6-[3-(Dimethylamino)propoxy]5-{[ethyl(methyl)sulfamoyl]amino}pyridin-3-yl}-3′-Methyl-2′,3′-dihydrospiro[cyclobutane-1,1′-pyrrolo[2,3-c]quinoline]-2′-one]
22 | < 0.5 nM | 0.5 to 1 nM | – | – | CN(C)CCCOc1ncc(-c2ccc3ncc4c(c3c2)C2(CCC2)C(=O)N4C)cc1NS(=O)(=O)N(C)C [Example 149, 8′-{6-[3-(Dimethylamino)propoxy]-5-[(dimethylsulfamoyl)amino]pyridine-3-yl}-3′-methyl-2′,3′-dihydrospiro[cyclobutane-1,1′-pyrrolo[2,3-c]quinoline]-2′-one hydrochloride]
23 | 1 to 100 nM | 1 to 100 nM | – | – | CN1CCN(CCCOc2ncc(-c3ccc4ncc5c(c4c3)C3(CCC3)C(=O)N5C)cc2NS(C)(=O)=O)CC1 [Example 299, N-(5-(3′-Methyl-2′-oxo-2′,3′-dihydrospiro[cyclobutane-1,1′-pyrrolo[2,3-c]quinolin]-8′-yl)-2-(3-(4-methylpiperazin-1-yl)propoxy)pyridin-3-yl)methanesulfonamide]
